These results are taken from ChEMBL document CHEMBL3739338, “Inhibition of carbonic anhydrase isoforms I, II, IV, VII and XII with carboxylates and sulfonamides incorporating phthalimide/phthalic anhydride scaffolds” (Bioorg Med Chem, 2016).

The structures appear in SMILES notation.

One experiment has as its target Carbonic anhydrase 2 (Homo sapiens, UniProt P00918). The experiment in a line: Inhibition of human carbonic anhydrase-2 preincubated for 15 mins by stopped flow CO2 dehydration assay.
The next experiment deals with Carbonic anhydrase 4 (Homo sapiens, UniProt P22748). Nature of the experiment: Inhibition of human carbonic anhydrase-4 preincubated for 15 mins by stopped flow CO2 dehydration assay.
For a further experiment, the target named is Carbonic anhydrase 1 (Homo sapiens, UniProt P00915). The experiment in a line: Inhibition of human carbonic anhydrase-1 preincubated for 15 mins by stopped flow CO2 dehydration assay.
Chain of Carbonic anhydrase 1 (P00915 whole entry): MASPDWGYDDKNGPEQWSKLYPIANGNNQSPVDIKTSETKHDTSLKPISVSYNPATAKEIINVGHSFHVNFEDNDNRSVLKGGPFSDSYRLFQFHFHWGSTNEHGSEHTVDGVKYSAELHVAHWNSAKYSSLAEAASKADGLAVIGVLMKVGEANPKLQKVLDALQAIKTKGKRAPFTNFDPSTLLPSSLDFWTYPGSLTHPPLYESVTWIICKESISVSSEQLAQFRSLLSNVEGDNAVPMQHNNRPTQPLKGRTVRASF

Chain of Carbonic anhydrase 4 (P22748 whole entry): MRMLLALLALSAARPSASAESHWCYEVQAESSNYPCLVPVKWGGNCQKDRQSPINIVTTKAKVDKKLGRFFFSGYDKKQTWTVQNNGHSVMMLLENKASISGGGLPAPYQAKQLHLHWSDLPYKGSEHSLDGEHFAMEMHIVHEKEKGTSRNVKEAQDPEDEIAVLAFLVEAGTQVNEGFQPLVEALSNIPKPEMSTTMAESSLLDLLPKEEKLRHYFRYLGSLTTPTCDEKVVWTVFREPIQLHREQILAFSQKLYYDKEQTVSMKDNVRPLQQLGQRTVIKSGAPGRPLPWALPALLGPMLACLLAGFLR

The term Ki denotes the equilibrium dissociation constant of an inhibitor or competing ligand from its target. For `NS(=O)(=O)c1ccc(CCN2C(=O)c3ccc(C(=O)Nc4ccccc4C(=O)O)cc3C2=O)cc1`, the Ki on Carbonic anhydrase 2 stood at 0.0138 µM.

Consider `O=C(Nc1ccc(Cl)cc1C(=O)O)c1ccc2c(c1)C(=O)OC2=O`, for which the Ki on Carbonic anhydrase 4 is above 10 µM.

With `O=C(O)c1ccc(N2C(=O)c3ccc(C(=O)Nc4ccccc4C(=O)O)cc3C2=O)cc1`, the Ki on Carbonic anhydrase 1 and on Carbonic anhydrase 2 was above 10 µM in each case.

With `NS(=O)(=O)c1ccc(CN2C(=O)c3ccc(C(=O)Nc4ccccc4C(=O)O)cc3C2=O)cc1`, at Carbonic anhydrase 2, the Ki is 0.0105 µM.

As to `COc1cc(NC(=O)c2ccc3c(c2)C(=O)OC3=O)c(C(=O)O)cc1OC`, the Ki at Carbonic anhydrase 2 and at Carbonic anhydrase 4 was above 10 µM each time.

`CCOC(=O)c1ccc(N2C(=O)c3ccc(C(=O)Nc4ccccc4C(=O)O)cc3C2=O)cc1`: the Ki on Carbonic anhydrase 1 and at Carbonic anhydrase 2 was above 10 µM each time.

Take `O=C(Nc1ccc(I)cc1C(=O)O)c1ccc2c(c1)C(=O)OC2=O`: the Ki at Carbonic anhydrase 1, at Carbonic anhydrase 2 and on Carbonic anhydrase 4 was above 10 µM throughout.

In the case of `O=C(Nc1ccccc1C(=O)O)c1ccc2c(c1)C(=O)N(c1ccccc1)C2=O`, the Ki on Carbonic anhydrase 1, at Carbonic anhydrase 2 and on Carbonic anhydrase 4 was above 10 µM in each case.

Compound `Cc1ccc(NC(=O)c2ccc3c(c2)C(=O)OC3=O)c(C(=O)O)c1` showed a Ki at Carbonic anhydrase 2 above 10 µM.

The compound `O=C(Nc1ccccc1C(=O)O)c1ccc2c(c1)C(=O)N(Cc1ccccc1)C2=O` displayed a Ki on Carbonic anhydrase 2 above 10 µM.

`O=C(Nc1ccccc1C(=O)O)c1ccc2c(c1)C(=O)OC2=O` yielded an inhibition constant Ki on Carbonic anhydrase 2 above 10 µM.

`NS(=O)(=O)c1ccc(N2C(=O)c3ccc(C(=O)Nc4ccccc4C(=O)O)cc3C2=O)cc1`: the Ki at Carbonic anhydrase 2 stood at 0.0089 µM. That is a single-digit nanomolar value.

Regarding `O=C(Nc1ccccc1C(=O)O)c1ccc2c(c1)C(=O)N(CCc1ccccc1)C2=O`, the Ki at Carbonic anhydrase 2 is above 10 µM.
